# Assay results reported in patent US9456971B2, “Moisturizer and cosmetic agent containing same” (AJINOMOTO CO., INC., priority 2012, dated 2016).
# Tests used:
# Format in all cases: physicochemical
# [1] = Evaluation of moisturizer: water retention ability; details: R(%)=[3]/[2]×100; after moisture absorption, dried at 35% RH, 25° C. for 14 days
# Procedure: (§1) To study the hygroscopicity and water retention ability of moisturizers, the following experiment was performed.
# Decanoyl proline sodium obtained in Synthetic Example 2, betaine (“aminocoat” manufactured by Asahi Kasei Corporation), sodium lactate (manufactured by Wako), sodium pyrrolidonecarboxylate (“AJIDEW” NL-50 manufactured by Ajinomoto Co., Inc.), glycerol (“concentrated glycerin” manufactured by Kao Corporation), and sorbitol (manufactured by Kao Corporation) were each dried under vacuum. The moisture level of the samples was measured by Karl Fischer moisture meter, the amount of water was determined, and the weight other than the moisture level was calculated ([1]). Thereafter, the samples were allowed to absorb moisture under the conditions of 65% RH, 25° C. for 14 days, and the weight was measured ([2]). Thereafter, the samples were dried under the conditions of 35% RH, 25° C. for 14 days, and the weight was measured ([3]). […]
# [2] = Evaluation of moisturizer: hygroscopicity; details: A(%)=([2]−[1])/[1]×100; vacuum-dried sample allowed to absorb moisture at 65% RH, 25° C. for 14 days
# Procedure: as §1
# Decanoyl proline sodium obtained in Synthetic Example 2, betaine (“aminocoat” manufactured by Asahi Kasei Corporation), sodium lactate (manufactured by Wako), sodium pyrrolidonecarboxylate (“AJIDEW” NL-50 manufactured by Ajinomoto Co., Inc.), glycerol (“concentrated glycerin” manufactured by Kao Corporation), and sorbitol (manufactured by Kao Corporation) were each dried under vacuum. The moisture level of the samples was measured by Karl Fischer moisture meter, the amount of water was determined, and the weight other than the moisture level was calculated ([1]). Thereafter, the samples were allowed to absorb moisture under the conditions of 65% RH, 25° C. for 14 days, and the weight was measured ([2]). Thereafter, the samples were dried under the conditions of 35% RH, 25° C. for 14 days, and the weight was measured ([3]).
# • A(%)=([2]−[1])/[1]×100 was calculated and the samples were evaluated according to the following criteria. • ⊙: value of A is not less than 15% • ◯: value of A is not less than 12% and less than 15% • Δ: value of A is not less than 10% and less than 12% • ×: value of A is less than 10% [Water Retention Ability] • R(%)=[3]/[2]×100 was calculated and the samples were evaluated according to the following criteria. • ⊙: value of R is not less than 80% • ◯: value of R is not less than 60% and less than 80% • Δ: value of R is not less than 40% and less than 60% • ×: value of R is less than 40%
# [3] = Stability against decomposition (acceleration test, HPLC); details: 30.0 wt % in water, 70° C. for 22 days
# Procedure: Solutions of the compound of Synthetic Example 2 (decanoyl proline Na, 30.0 wt %) in water with or without addition of etidronate to 0.1 wt % were prepared, and they were subjected to an acceleration test at 70° C. for 22 days. The decomposition rate of the compound of Synthetic Example 2 in each composition was measured using HPLC (20A manufactured by Shimadzu Corporation).
Compound,hygroscopicity [2],decomposition rate of decanoyl proline Na ([3]; etidronate added to 0.1 wt %),decomposition rate of decanoyl proline Na ([3]; etidronate not added),water retention ability [1]
"CC(O)C(=O)[O-].[Na+] (stereo not drawn) [compound 2, sodium lactate]",⊙ (value of A is not less than 15%),,,
"O=C1CCC(C(=O)[O-])N1.[Na+] (stereo not drawn) [compound 3, sodium pyrrolidonecarboxylate]",⊙ (value of A is not less than 15%),,,
"OCC(O)CO [compound 4, glycerol]",⊙ (value of A is not less than 15%),,,

# Further lines, with some results ahead:
hygroscopicity [2],decomposition rate of decanoyl proline Na ([3]; etidronate added to 0.1 wt %),decomposition rate of decanoyl proline Na ([3]; etidronate not added),Compound,water retention ability [1]
⊙ (value of A is not less than 15%),0.8%,2.4%,"CCCCCCCCCC(=O)N1CCC[C@H]1C(=O)[O-].[Na+] [Example 1, decanoyl proline sodium salt]",⊙ (value of R is not less than 80%)
⊙ (value of A is not less than 15%),,,"C[N+](C)(C)CC(=O)O [compound 1, betaine]",Δ (value of R is not less than 40% and less than 60%)
